Experimental findings from patent US10399940B2, “Substituted pyrrolidines and methods of use” (AbbVie S.à.r.l., priority 2016, dated 2019) are described below.

In this assay the target is T1, F508delCFTR (Homo sapiens, UniProt P13569, DEL508-508).
T1 construct: expressed in transfected cells; host or cells: CFBE41o- (human lung derived epithelial cell line), doxycycline-inducible expression
As to the kind of experiment: Cell Surface Expression-Horse Radish Peroxidase (CSE-HRP) assay. Type of assay: cell-based. The note with it: CFBE41o-F508delCFTR-HRP cells; for Maximum % activity (with co-corrector): with co-corrector (2 μM); for Maximum % activity (with co-corrector) / Maximum % activity (without co-corrector): normalized to on-plate positive control, highest concentration 20 μM. Put shortly: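 Surface F508delCFTR-HRP was read by luminol luminescence after 18–24 h compound exposure at 33 °C, without or with 2 μM co-corrector. Doses were eight 3-fold steps from 20 μM, in doxycycline-induced (0.5 μg/mL, 72 h) CFBE41o- cells. % activity was scaled to the on-plate 2 μM positive control minus DMSO; EC50 came from a variable-slope sigmoid fit.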

[1] abbreviates: test compound without co-corrector, 18-24 hours at 33° C., read-out: EC50 (without co-corrector).
The mark [2] stands for this setting: with co-corrector (2 μM of 3-[(2R,4R)-4-({[1-(2,2-difluoro-1,3-benzodioxol-5-yl)cyclopropyl]carbonyl}amino)-7-methoxy-3,4-dihydro-2H-chromen-2-yl]benzoic acid), read-out: EC50 (with co-corrector).

Like-named read-outs stand apart in the source and are kept apart here.

T1 sequence (P13569 with tags, fused parts or gaps DEL508-508): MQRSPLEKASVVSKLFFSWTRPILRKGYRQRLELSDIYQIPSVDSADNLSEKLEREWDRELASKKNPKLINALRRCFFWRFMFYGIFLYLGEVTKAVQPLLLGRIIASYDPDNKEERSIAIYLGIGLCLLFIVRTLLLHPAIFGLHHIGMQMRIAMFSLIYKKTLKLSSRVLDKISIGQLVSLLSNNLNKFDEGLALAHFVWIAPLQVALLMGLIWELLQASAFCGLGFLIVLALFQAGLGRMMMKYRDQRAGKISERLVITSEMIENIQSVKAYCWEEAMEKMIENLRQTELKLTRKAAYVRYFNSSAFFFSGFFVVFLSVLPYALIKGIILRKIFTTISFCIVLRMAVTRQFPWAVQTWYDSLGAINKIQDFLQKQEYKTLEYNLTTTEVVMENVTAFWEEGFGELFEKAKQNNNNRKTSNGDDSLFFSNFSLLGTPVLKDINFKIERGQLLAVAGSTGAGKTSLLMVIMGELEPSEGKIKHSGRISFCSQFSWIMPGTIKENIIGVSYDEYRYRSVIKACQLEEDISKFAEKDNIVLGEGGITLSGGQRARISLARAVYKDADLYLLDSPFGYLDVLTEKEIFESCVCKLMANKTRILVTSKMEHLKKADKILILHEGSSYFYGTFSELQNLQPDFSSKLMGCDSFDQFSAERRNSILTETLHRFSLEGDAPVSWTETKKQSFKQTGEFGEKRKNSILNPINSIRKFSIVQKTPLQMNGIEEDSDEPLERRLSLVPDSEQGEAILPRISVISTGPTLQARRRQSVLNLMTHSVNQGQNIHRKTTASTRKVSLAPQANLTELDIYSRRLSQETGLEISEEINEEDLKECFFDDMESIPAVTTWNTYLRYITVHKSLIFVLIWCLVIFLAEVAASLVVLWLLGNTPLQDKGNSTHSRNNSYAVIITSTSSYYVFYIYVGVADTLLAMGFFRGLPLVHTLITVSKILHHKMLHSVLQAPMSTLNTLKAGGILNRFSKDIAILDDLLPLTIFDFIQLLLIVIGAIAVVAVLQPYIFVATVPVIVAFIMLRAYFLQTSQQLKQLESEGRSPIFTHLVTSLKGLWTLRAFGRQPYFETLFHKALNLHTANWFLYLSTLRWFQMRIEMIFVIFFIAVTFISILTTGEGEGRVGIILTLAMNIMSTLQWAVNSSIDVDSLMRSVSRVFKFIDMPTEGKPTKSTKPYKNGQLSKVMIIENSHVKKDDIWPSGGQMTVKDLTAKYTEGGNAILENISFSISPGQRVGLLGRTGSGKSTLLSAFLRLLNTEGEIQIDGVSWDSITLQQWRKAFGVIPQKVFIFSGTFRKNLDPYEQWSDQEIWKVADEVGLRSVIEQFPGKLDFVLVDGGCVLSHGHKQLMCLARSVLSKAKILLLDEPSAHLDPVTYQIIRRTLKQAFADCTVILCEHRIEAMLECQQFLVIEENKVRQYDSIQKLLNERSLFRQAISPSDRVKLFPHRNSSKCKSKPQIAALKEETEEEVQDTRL

In the case of `COc1ncc(C2CCC2)cc1CO[C@H]1[C@H](C(C)(C)C)[C@@H](C(=O)O)N(S(=O)(=O)c2cccc3ccccc23)[C@H]1c1cccnc1OC(C)C` [Example 294, (2S,3R,4S,5S)-3-tert-butyl-4-[(5-cyclobutyl-2-methoxypyridin-3-yl)methoxy]-1-(naphthalene-1-sulfonyl)-5-{2-[(propan-2-yl)oxy]pyridin-3-yl}pyrrolidine-2-carboxylic acid], the “Maximum % activity (with co-corrector)” value is “++ (≥150 and <350)”; the “Maximum % activity (without co-corrector)” value is reported as “+ (<100)”. The 50% effective concentration (EC50) (in general, the concentration that produces a half-maximal response) under setting [1] is more than 10000 nM. In addition, under setting [2], the EC50 lay in the range of 1000 to 10000 nM.

With `COc1ncc(C2CCC2)cc1CO[C@H]1[C@H](C(C)(C)C)[C@@H](C(=O)O)N(C(=O)C2CCCCC2)[C@H]1c1ccccc1C(C)C` [Example 295, (2S,3R,4S,5S)-3-tert-butyl-4-[(5-cyclobutyl-2-methoxypyridin-3-yl)methoxy]-1-(cyclohexanecarbonyl)-5-[2-(propan-2-yl)phenyl]pyrrolidine-2-carboxylic acid], the “Maximum % activity (with co-corrector)” value is “+++ (≥350)” and the “Maximum % activity (without co-corrector)” value is listed as “+++ (≥200)”. For the same compound, the EC50 under setting [1] was less than 1000 nM. Moreover, the EC50 under setting [2] is less than 1000 nM.

As to `CC(C)Oc1ncccc1[C@H]1[C@@H](OCc2cc3cc(C4CCC4)ccc3o2)[C@H](C(C)(C)C)[C@@H](C(=O)O)N1C(=O)[C@@H]1CCCCO1` [Example 296, (2S,3R,4S,5S)-3-tert-butyl-4-[(5-cyclobutyl-1-benzofuran-2-yl)methoxy]-1-[(2S)-oxane-2-carbonyl]-5-{2-[(propan-2-yl)oxy]pyridin-3-yl}pyrrolidine-2-carboxylic acid], the “Maximum % activity (with co-corrector)” value was “++ (≥150 and <350)”; the “Maximum % activity (without co-corrector)” value is given as “+ (<100)”. The EC50 under setting [1] is 1000 to 10000 nM. Also, the concentration giving a half-maximal response (EC50) under setting [2] is less than 1000 nM.

With “(2S,3R,4S,5S)-4-[(5-bromo-2-methoxypyridin-3-yl)methoxy]-3-tert-butyl-5-(2-methylphenyl)-1-[(2S)-oxane-2-carbonyl]pyrrolidine-2-carboxylic acid [Example 186]”, the “Maximum % activity (with co-corrector)” value is given as “+++ (≥350)” and the “Maximum % activity (without co-corrector)” value is listed as “+++ (≥200)”. Besides, the EC50 under setting [1] lay within 1000 to 10000 nM. In addition, the EC50 under setting [2] is less than 1000 nM.

For the compound “(2S,3R,4S,5S)-5-(2-bromophenyl)-3-tert-butyl-4-[(5-cyclobutyl-2-methoxypyridin-3-yl)methoxy]-1-[(2S)-oxane-2-carbonyl]pyrrolidine-2-carboxylic acid [Example 177]”, the “Maximum % activity (with co-corrector)” value was “+++ (≥350)”; the “Maximum % activity (without co-corrector)” value was “++ (≥100 and <200)”. In addition, the half-maximal effective concentration (EC50) under setting [1] is 1000 to 10000 nM. In addition, the EC50 under setting [2] was in the range of 1000 to 10000 nM.
